The target in assay [1] is human TNIK (N-terminal segment, TNIK_N, residues 1-314) (Homo sapiens (Human), UniProt Q9UKE5). The assay can be described thus: TNIK kinase assay (mobility shift). It counts as biochemical. The settings on record: TNIK_N kinase activity, 25 μM ATP, 1 h at room temperature. Put shortly: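 GST-tagged human TNIK residues 1-314 (Sf21 baculovirus) at 0.08 ng/μl phosphorylated 1 μM FITC-peptide with 25 μM ATP. Buffer: 20 mM Hepes pH 7.5, 5 mM MgCl2, 2 mM DTT, 1% DMSO; 1 h at room temperature, stopped with EDTA. Mobility-shift detection; activity = P/(P+S).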
human TNIK (N-terminal segment, TNIK_N, residues 1-314), sequence (Q9UKE5 1-314): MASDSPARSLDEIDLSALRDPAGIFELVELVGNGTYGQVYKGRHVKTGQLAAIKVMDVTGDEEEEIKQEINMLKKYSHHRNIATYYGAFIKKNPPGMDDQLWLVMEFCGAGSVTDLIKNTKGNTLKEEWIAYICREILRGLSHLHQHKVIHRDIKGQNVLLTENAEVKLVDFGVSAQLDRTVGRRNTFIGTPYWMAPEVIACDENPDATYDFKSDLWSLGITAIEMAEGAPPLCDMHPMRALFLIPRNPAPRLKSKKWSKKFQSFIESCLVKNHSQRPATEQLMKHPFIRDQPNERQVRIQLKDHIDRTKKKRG

The test system of assay [2] is human colon cancer cell line HCT-116. The assay can be described thus: In vitro cell proliferation assay. As to conditions: HCT-116 cell number, 72 hours of treatment. The assay is classed as cell-based. The procedure: In Vitro Cell Proliferation Assay
The human colon cancer cell line HCT-116 was seeded at 600 cells/well in 96 well-plate (ThermoFisher) using RPMI medium containing 2 mM L-glutamine (Invitrogen) supplemented with 10% FCS (Invitrogen) and 1% penicillin/streptomycin (Sigma) and maintained at 37° C., 5% CO2 and 100% humidity. The following day, old medium was withdrawn and the fresh medium was added. Initial numbers of cells were counted before adding compounds. Then cells were treated in duplicates with compounds (a half-logarithmic serial dilution from 10 μM). Eight untreated control wells were incubated in each plate. After 72 hours of treatment, cells were fixed with 2% paraformaldehyde, and the nucleus were stained with Hoechst 33258 (Invitrogen). The numbers of cells were counted with ArrayScan™ VTI (ThermoFisher Scientific).

Molecules are shown by their SMILES.

The IC50 is the concentration that gives 50% inhibition. For the compound `CN1CCN(c2ccc(C(=O)Nc3sc(Nc4cccc5ncccc45)nc3C(N)=O)cc2)CC1` [Example 26, 5-[4-(4-methylpiperazin-1-yl)benzamido]-2-(quinolin-5-ylamino)thiazole-4-carboxamide], the figures for the IC50 in assay [1] and in assay [2] were 15.6 nM and 1000 to 10000 nM, respectively.
The like results for `NC(=O)c1nc(Nc2ccc3ccccc3c2)sc1NC(=O)c1ccc(N2CCC(O)CC2)cc1` [Example 97, 5-[4-(4-hydroxypiperidin-1-yl)benzamido]-2-(naphthalen-2-ylamino)thiazole-4-carboxamide] were, in that order, 12.7 nM and less than 100 nM.
Take `NC(=O)c1nc(Nc2ccc3ccccc3c2)sc1NC(=O)c1ccc(Cn2cncn2)cc1` [Example 195, 5-{4-[(1H-1,2,4-triazol-1-yl)methyl]benzamido}-2-(naphthalen-2-ylamino)thiazole-4-carboxamide]: the results for the IC50 in assay [1] and in assay [2] were 2.5 nM and less than 100 nM, respectively.
The matching figures for `CN1CCN(Cc2ccc(C(=O)Nc3sc(Nc4ccc5ccccc5c4)nc3C(N)=O)cc2)CC1` [Example 17, 5-{4-[(4-methylpiperazin-1-yl)methyl]benzamido}-2-(naphthalen-2-ylamino)thiazole-4-carboxamide]: 5.1 nM and less than 100 nM.
The matching figures for `NC(=O)c1nc(Nc2ccc3ccccc3c2)sc1NC(=O)c1ccc(CN2CCOCC2)cc1` [Example 18, 5-[4-(morpholinomethyl)benzamido]-2-(naphthalen-2-ylamino)thiazole-4-carboxamide]: 8.6 nM and less than 100 nM.
The matching figures for `CN1CCN(c2ccc(C(=O)Nc3sc(N(C)c4ccc5ccccc5c4)nc3C(N)=O)cc2)CC1` [Example 65, 2-[methyl(naphthalen-2-yl)amino]-5-[4-(4-methyl-piperazin-1-yl)benzamido]thiazole-4-carboxamide]: 36.3 nM and 1000 to 10000 nM.
As to `CN1CCN(c2ccc(C(=O)Nc3sc(Nc4cccc5cccnc45)nc3C(N)=O)cc2)CC1` [Example 27, 5-[4-(4-methylpiperazin-1-yl)benzamido]-2-(quinolin-8-ylamino)thiazole-4-carboxamide], the half-maximal inhibitory concentration (IC50) in assay [1] was 19.1 nM; in assay [2], 1000 to 10000 nM.
The like results for `NC(=O)c1nc(Nc2ccc3ccccc3c2)sc1NC(=O)c1ccc(Cn2cnnn2)cc1` [Example 205, 5-(4-[(1H-tetrazol-1-yl)methyl)benzamido]-2-(naphthalen-2-ylamino)thiazole-4-carboxamide] were, in that order, 5.9 nM and less than 100 nM.
In turn, `CN1CCN(Cc2cc(C(=O)Nc3sc(Nc4ccc5ccccc5c4)nc3C(N)=O)cs2)CC1` [Example 60, 5-{5-[(4-methylpiperazin-1-yl)methyl]thiophene-3-carboxamido}-2-(naphthalen-2-ylamino) thiazole-4-carboxamide] displayed an IC50 in assay [2] of less than 100 nM.
For the compound `NCc1ccc(C(=O)Nc2sc(Nc3ccc4ccccc4c3)nc2C(N)=O)cc1` [Example 23, 5-(4-aminomethylbenzamido)-2-(naphthalen-2-yl-amino)thiazole-4-carboxamide], the results for the IC50 in assay [1] and in assay [2] were 5.3 nM and 100 to 1000 nM, respectively.
Take `CN1CCN(c2ccc(C(=O)Nc3sc(Nc4ccc5ccccc5c4)nc3C(N)=O)cc2)CC1` [Example 12, 5-[4-(4-methylpiperazin-1-yl)benzamido]-2-(naphthalen-2-ylamino)thiazole-4-carboxamide]: the IC50 in assay [1] was 10.2 nM; in assay [2] it was 100 to 1000 nM.
Regarding `NC(=O)c1nc(Nc2ccnc3ccccc23)sc1NC(=O)c1csc(CN2CCOCC2)c1` [Example 67], the IC50 in assay [2] was 1000 to 10000 nM.
For the compound `NC(=O)c1nc(Nc2ccc3ccccc3c2)sc1NC(=O)c1ccc(NCCO)cc1` [Example 10, 5-[4-(2-hydroxyethylamino)benzamido]-2-(naphthalen-2-ylamino)thiazole-4-carboxamide], the IC50 in assay [1] is 10.6 nM; in assay [2], less than 100 nM.
The like results for `NC(=O)c1nc(Nc2ccc3ccccc3c2)sc1NC(=O)c1ccc(Cn2ccnc2)cc1` [Example 208, 5-{4-[(1H-imidazol-1-yl)methyl]benzamido}-2-(naphthalen-2-ylamino)thiazole-4-carboxamide] were, in that order, 3 nM and less than 100 nM.
`CN1CCN(CCCCCC(=O)Nc2sc(Nc3ccc4ccccc4c3)nc2C(N)=O)CC1` [Example 91, 5-[6-(4-methylpiperazin-1-yl)hexanamido]-2-(naphthalen-2-ylamino)thiazole-4-carboxamide]: the IC50 in assay [2] was 100 to 1000 nM.
On the same count and under the same terms, next, `COc1ccc2cc(Nc3nc(C(N)=O)c(NC(=O)c4ccsc4)s3)ccc2c1` [Example 73, 2-[(6-methoxynaphthalen-2-yl)amino]-5-(thio-phene-3-carboxamido)thiazole-4-carboxamide]: 1000 to 10000 nM.
Consider `CN1CCN(c2ccc(C(=O)Nc3sc(N(C)c4ccc5ncccc5c4)nc3C(N)=O)cc2)CC1` [Example 28, 2-[methyl(quinolin-6-yl)amino]-5-[4-(4-methylpiperazin-1-yl]benzamido)thiazole-4-carboxamide], for which the figures for the IC50 in assay [1] and in assay [2] were 17 nM and 100 to 1000 nM, respectively.
Take `NC(=O)c1nc(Nc2ccc3cnccc3c2)sc1NC(=O)c1ccsc1` [Example 46, 2-(isoquinolin-6-ylamino)-5-(thiophene-3-carbox-amido)thiazole-4-carboxamide]: the IC50 is 12 nM in assay [1] and 100 to 1000 nM in assay [2].
In turn, `NC(=O)c1nc(Nc2ccc3ccccc3c2)sc1NC(=O)c1ccc(F)cc1` [Example 8, 5-(4-fluorobenzamido)-2-(naphthalen-2-ylamino) thiazole-4-carboxamide] came in with an IC50 in assay [2] of 100 to 1000 nM.
Still for that read-out and setting: next, `NC(=O)c1nc(Nc2cccc3ncccc23)sc1NC(=O)c1csc(CN2CCOCC2)c1` [Example 49, 5-[5-(morpholinomethyl)thiophene-3-carbox-amido]-2-(quinolin-5-ylamino)thiazole-4-carboxamide]: 1000 to 10000 nM.
Turning to `CC(C)=CC(=O)Nc1sc(Nc2ccc3ccccc3c2)nc1C(N)=O` [Example 83, 5-(3-methylbut-2-enamido)-2-(naphthalen-2-yl-amino)thiazole-4-carboxamide], the IC50 in assay [1] was 12.7 nM; in assay [2], 1000 to 10000 nM.
On to `CC(=O)Nc1ccc(C(=O)Nc2sc(Nc3ccc4ccccc4c3)nc2C(N)=O)cc1` [Example 2, 5-(4-acetamidobenzamido)-2-(naphthalen-2-ylamino)thiazole-4-carboxamide], for which the values for the IC50 in assay [1] and in assay [2] were 19.8 nM and less than 100 nM, respectively.
The like results for `CN(C)CCNc1ccc(C(=O)Nc2sc(Nc3ccc4ccccc4c3)nc2C(N)=O)cc1` [Example 11, 5-{4-[2-(dimethylamino)ethylamino]benzamido}-2-(naphthalen-2-ylamino)thiazole-4-carboxamide] were, in that order, 8.6 nM and less than 100 nM.
The matching figures for `NC(=O)c1nc(Nc2ccc3ccccc3c2)sc1NC(=O)c1ccc(NCCN2CCCCC2)cc1` [Example 13, 2-(naphthalen-2-ylamino)-5-{4-[2-(piperidin-1-yl)ethylamino]benzamido}thiazole-4-carboxamide]: 8 nM and less than 100 nM.
The matching figures for `CN1CCN(c2ccc(C(=O)Nc3sc(Nc4ccc5ncccc5c4)nc3C(N)=O)cc2)CC1` [Example 24, 5-[4-(4-methylpiperazin-1-yl)benzamido]-2-(quinolin-6-ylamino)thiazole-4-carboxamide]: 4.1 nM and 1000 to 10000 nM.
As to `NC(=O)c1nc(Nc2ccc3ccccc3c2)sc1NC(=O)c1ccc(N)cc1` [Example 16, 5-(4-aminobenzamido)-2-(naphthalen-2-ylamino) thiazole-4-carboxamide], the IC50 in assay [1] is 20.3 nM; in assay [2] it was less than 100 nM.
The matching figures for `NC(=O)c1nc(Nc2ccc3ccccc3c2)sc1NC(=O)c1cc2sccc2[nH]1` [Example 35, N-[4-carbamoyl-2-(naphthalen-2-ylamino)thiazol-5-yl]-4H-thieno[3,2-b]pyrrole-5-carboxamide]: 22.7 nM and 100 to 1000 nM.

Values taken from US9102637B2, “Bicyclic thiazole compounds” (CARNA BIOSCIENCES INC., priority 2013, dated 2015).
